Data published in patent publication US9988405B2, “O-phenyl chalcone compounds and uses thereof” (Neopanora Bio-technology (Zhuhai) Ltd., priority 2014, dated 2018).
Like-named read-outs stand apart in the source and are kept apart here.

What was measured:
[1] = tested on: human colon cancer cells SW480; assay: SRB anti-proliferative assay, SW480; type: cell-based; details: read-out: Anti-proliferative IC50, SW480
Protocol: (§1) The present example evaluated the anti-tumor activity of the molecules provided by the present invention. The present example mainly used a method with SRB (sulforhodamine B) dying, in which proteins in the cell were stained with SRB dye to determine protein content in the cell so as to characterize cell growth density. Firstly, the test compound was formulated into a stock solution (10 mM), which was stored at 4° C. in a refrigerator. Prior to beginning the assay, the stock solution was diluted with DMSO into a series of different concentrations. The required concentrations were obtained by diluting with complete growth medium. Well growing cells were seeded in a 96-well plate (5000 cells/well, 100 uL) and cultured in an incubator at 37° C., 5% CO2, and 90% RH. 24 h later, the prepared compound solution (100 μL) was slowly added to cell solution in the 96-well plate, and the well with DMSO (final concentration 0.5%) instead of the drug was used as a drug free control. The plate was incubated for 48 h. In addition, a day 0 plate that was drug free was directly detected after cell seeded in the plate for 24 h. The 96-well plate was taken out and added with trichloroacetic acid (50 μL, final concentration 10%). The plate was incubated at 4° C. for 1 h to fix the cells.
(§2) The plate was washed with ultrapure water and air-dried. The plate was then stained with SRB dye (0.4% in 1% acetic acid, 100 μL) for 30 min at room temperature. The plate was then washed with 1% acetic acid and then air-dried. A Tris base solution (100 μL, 10 mM, pH10.4) was added, after which the plate was gently shaken for 1 h on an orbital shaker to ensure that the dyes were completed dissolved. The optical density (OD) was recorded on a TECAN Infinite M200 Pro multimode reader at 515 nm. The cell growth (% of control)=(OD value of wells added with drug−mean OD value of Day 0 plate)/(OD value of DMSO drug-free control well−mean OD value of Day 0 plate)*100.

[2] = tested on: human nasopharyngeal carcinoma cells CNE2; assay: SRB anti-proliferative assay, CNE2; type: cell-based; details: read-out: Anti-proliferative IC50, CNE2
Protocol: as §1, §2

[3] = tested on: human liver cancer cell HepG2; assay: SRB anti-proliferative assay, HepG2; type: cell-based; details: read-out: Anti-proliferative IC50, HepG2
Protocol: as §1, §2

[4] = tested on: human lung cancer cells A549; assay: SRB anti-proliferative assay, A549; type: cell-based; details: read-out: Anti-proliferative IC50, A549
Protocol: as §1, §2

tubulin = assay: Microtubule polymerization inhibition assay (tubulin polymerization assay kit); type: biochemical; details: 2 mg/ml tubulin, 37° C., fluorescence, 1 hour; read-out: IC50 on inhibition of microtubules polymerization
Protocol: Tubulin polymerization assay kit was used in the example, and the accompanying experimental protocol was followed. The specific method was described below.
Prior to the assay, the compounds were diluted with DMSO into a series of different concentrations and then diluted with sterile ultra-pure water into 10× solution of compounds. A 96-well plate was pre-warmed to 37° C. for 30 min in a multi-functional microplate reader. Reaction solution (2 mg/ml tubulin, 80 mM PIPES pH6.9, 2.0 mM MgCl2, 0.5 mM EGTA, 1.0 mM GTP, 15% glycerin) is prepared by materials needed in microtubule polymerization (tubulin buffer 85 uL, Glycerin buffer 150 μL, general buffer 205 μL, GTP ([…]) 4.4 μL). 5 μL solution of compound were added into the 96-well plate and incubated in a microplate reader for 1 min. DMSO was employed as a control. The plate was taken out and then reaction solution was immediately added ([…]). The plate was then immediately placed back into the reader and vibrated for 5 seconds before recording. The microplate reader was set at 37° C., and monitored in a kinetic model with emission wavelength at 450 nm and excitation wavelength at 360 nm. The plate was mixed and measured every minute and determined for 1 hour. A curve of fluorescence intensity v.s. time was obtained and the inhibition rate was calculated by the following formula. GraphPad Prism software was used to determine the IC50. Inhibition rate=[1−(average value of plateau of test curve−value of time 0)/(average value of plateau of DMSO curve−value of time 0)]*100.

[5] = tested on: incristine resistant human ileocecum carcinoma cell HCT-8/VCT; assay: SRB anti-proliferative assay, drug-resistant HCT-8/VCT; type: cell-based; details: HCT8/VCT, read-out: Anti-proliferative IC50, HCT-8/VCT
Protocol: as §1, §2
(§3) We also evaluated the anti-proliferation activities of selected compounds against drug-resistant cancer cell lines.

[6] = tested on: cis-platinum resistant human lung cancer cell A549/CDDP; assay: SRB anti-proliferative assay, drug-resistant A549/CDDP; type: cell-based; details: read-out: Anti-proliferative IC50, A549/CDDP
Protocol: as §1, §2, §3

[7] = tested on: human colon cancer cells HCT8; assay: SRB anti-proliferative assay, HCT-8; type: cell-based; details: read-out: Anti-proliferative IC50, HCT-8
Protocol: as §1, §2

[8] = tested on: Paclitaxel-resistant human ovarian carcinoma cell A2780/TAX; assay: SRB anti-proliferative assay, drug-resistant A2780/TAX; type: cell-based; details: read-out: Anti-proliferative IC50, A2780/TAX
Protocol: as §1, §2, §3

[9] = tested on: human ovary cancer cells A2780; assay: SRB anti-proliferative assay, A2780; type: cell-based; details: read-out: Anti-proliferative IC50, A2780
Protocol: as §1, §2

[10] = tested on: doxorubicin resistant breast cancer cell MCF-7/DOX; assay: SRB anti-proliferative assay, drug-resistant MCF-7/DOX; type: cell-based; details: Homo sapiens, MCF7-DOX, read-out: Anti-proliferative IC50, MCF-7/DOX
Protocol: as §1, §2, §3

[11] = tested on: human breast cancer cells MCF7; assay: SRB anti-proliferative assay, MCF-7; type: cell-based; details: read-out: Anti-proliferative IC50, MCF-7
Protocol: as §1, §2

[12] = vincristine-resistant HCT-8/VCT, SRB
[13] = cis-platinum resistant A549/CDDP, SRB
[14] = paclitaxel-resistant A2780/TAX, SRB
[15] = doxorubicin resistant MCF-7/DOX, SRB

| Structure (SMILES) | IC50 ([1]; SW480, SRB, 48 h) [nM] | IC50 ([2]; CNE-2, CNE2, SRB, 48 h) [nM] | IC50 ([3]; HepG2, SRB, 48 h) [nM] | IC50 ([4]; A549, SRB, 48 h) [nM] | IC50 [5, 12] [nM] | IC50 [6, 13] [nM] | IC50 ([7]; HCT-8, SRB, 48 h) [nM] | IC50 [8, 14] [nM] | IC50 ([9]; A2780, SRB, 48 h) [nM] | IC50 [10, 15] [nM] | IC50 ([11]; MCF7, MCF-7, SRB, 48 h) [nM] | other results |
| --- | --- | --- | --- | --- | --- | --- | --- | --- | --- | --- | --- | --- |
| COc1ccc(/C=C/C(=O)c2ccccc2-c2ccc(OC)c(OC)c2OC)cc1O [compound 5, (E)-3-(3-Hydroxy-4-methoxyphenyl)-1-(2′,3′,4′-trimethoxy[1,1′-biphenyl]-2-yl)prop-2-en-1-one] | 74 | 45 | 52 | 55 | 266 | 122 | 59 | 289 | 74 | 59 | 96 | IC50 (tubulin): 6.5 µM |
| COc1ccc(/C=C/C(=O)c2ccccc2-c2ccc(F)cc2)cc1S(=O)(=O)O [compound 24, (E)-5-(3-(4′-Fluoro[1,1′-biphenyl]-2-yl)-3-oxoprop-1-en-1-yl)-2-methoxy benzenesulfonic acid] | 14 | 18 | 13 | 20 | 85 | 93 | 17 | 61 | 15 | 8 | 55 | – |
| CN(C)c1ccc(/C=C/C(=O)c2ccccc2-c2cccc(F)c2)cc1O [compound 13, (E)-1-(3′-Fluoro[1,1′-biphenyl]-2-yl)-3-(3-hydroxy-4-(Dimethylamino)phenyl)prop-2-en-1-one] | 6 | 15 | 9 | 11 | 37 | 69 | 14 | 43 | 10 | 5 | 69 | – |
| CN(C)c1ccc(/C=C/C(=O)c2ccccc2-c2ccc(F)cc2)cc1 [compound 2, (E)-3-(4-(Dimethylamino)phenyl)-1-(4′-fluoro[1,1′-biphenyl]-2-yl)prop-2-en-1-one] | 47 | 36 | 58 | 64 | 96 | 105 | 133 | 49 | 94 | 45 | 66 | IC50 (tubulin): 3.56 µM |
| COc1ccc(/C=C/C(=O)c2ccccc2-c2cc(OC)c(OC)c(OC)c2)cc1O [compound 4, (E)-3-(3-Hydroxy-4-methoxyphenyl)-1-(3′,4′,5′-trimethoxy[1,1′-biphenyl]-2-yl)prop-2-en-1-one] | – | – | – | – | – | – | – | – | – | – | – | IC50 ([1]; SW480, 48 h): 61 nM; IC50 ([2]; CNE-2, 48 h): 37 nM; IC50 ([3]; HepG2, 48 h): 46 nM; IC50 ([4]; A549, 48 h): 69 nM; IC50 (tubulin): 2.78 µM; IC50 [5]: 238 nM; IC50 ([6]; A549/CDDP): 93 nM; IC50 ([7]; HCT-8, 48 h): 56 nM; IC50 ([8]; A2780/TAX): 364 nM; IC50 ([9]; A2780, 48 h): 69 nM; IC50 [10]: 66 nM; IC50 ([11]; MCF7, 48 h): 82 nM |
| COc1ccc(/C=C/C(=O)c2ccccc2-c2cccc(F)c2)cc1S(=O)(=O)O [compound 23, (E)-5-(3-(3′-Fluoro[1,1′-biphenyl]-2-yl)-3-oxoprop-1-en-1-yl)-2-methoxy benzenesulfonic acid] | 10 | 16 | 12 | 14 | 62 | 42 | 12 | 53 | 10 | 3 | 42 | – |
| COc1ccc(-c2ccccc2C(=O)/C=C/c2ccc(N(C)C)cc2)c(OC)c1OC [compound 9, (E)-1-(2′,3′,4′-trimethoxy[1,1′-biphenyl]-2-yl)-3-(4-(Dimethylamino)phenyl)prop-2-en-1-one] | 37 | 53 | 72 | 85 | 169 | 401 | 153 | 156 | 117 | 53 | 124 | – |

Now from value to molecule, other results behind:

| IC50 ([1]; SW480, SRB, 48 h) [nM] | IC50 ([2]; CNE-2, CNE2, SRB, 48 h) [nM] | IC50 ([3]; HepG2, SRB, 48 h) [nM] | IC50 ([4]; A549, SRB, 48 h) [nM] | IC50 [5, 12] [nM] | IC50 [6, 13] [nM] | IC50 ([7]; HCT-8, SRB, 48 h) [nM] | IC50 [8, 14] [nM] | IC50 ([9]; A2780, SRB, 48 h) [nM] | IC50 [10, 15] [nM] | IC50 ([11]; MCF7, MCF-7, SRB, 48 h) [nM] | Structure (SMILES) | other results |
| --- | --- | --- | --- | --- | --- | --- | --- | --- | --- | --- | --- | --- |
| 47 | 33 | 23 | 65 | 420 | 430 | 68 | 496 | 47 | 38 | 116 | O=C(O)c1ccc(/C=C/C(=O)c2ccccc2-c2cccc(F)c2)cc1 [compound 18] | – |
| 48 | 55 | 44 | 44 | 117 | 317 | 36 | 130 | 39 | 26 | 87 | O=C(/C=C/c1cccc(O)c1)c1ccccc1-c1cccc(F)c1 [compound 12, (E)-1-(3′-Fluoro[1,1′-biphenyl]-2-yl)-3-(3-hydroxy)prop-2-en-1-one] | – |
| 57 | 35 | 34 | 64 | 157 | 232 | 42 | 143 | 38 | 43 | 92 | Nc1cccc(/C=C/C(=O)c2ccccc2-c2cccc(F)c2)c1 [compound 19, (E)-1-(3′-Fluoro[1,1′-biphenyl]-2-yl)-3-(3-aminophenyl)prop-2-en-1-one] | – |
| 44 | 25 | 37 | 48 | 86 | 68 | 92 | 55 | 73 | 32 | 48 | CN(C)c1ccc(/C=C/C(=O)c2ccccc2-c2cccc(F)c2)cc1 [compound 7, (E)-3-(4-(Dimethylamino)phenyl)-1-(3′-fluoro[1,1′-biphenyl]-2-yl)prop-2-en-1-one] | – |
